Experimental data: patent US9932300B2, “N,N′-diarylurea compounds and N,N′-diarylthiourea compounds as inhibitors of translation initiation” (President and Fellows of Harvard College, priority 2009, dated 2018)

Test system: eIF2-GTP-Met-tRNAi ternary complex
Test: Ternary complex assay (dual luciferase, firefly/renilla ratio) in stable KLN-tTA/pBISA-DL(ATF-4) cells; HTS and hit confirmation
Format: cell-based, mouse
Parameters: Activity 10 uM / Activity 2.5 uM / Activity 5 uM: unit not given here
Conditions: confirmed hits of the screen (Table 5); for Activity 2.5 uM: compound at 2.5 uM; for Activity 10 uM: compound at 10 uM; for Activity 5 uM: compound at 5 uM

| Compound | Activity 2.5 uM | Activity 10 uM | Activity 5 uM |
| --- | --- | --- | --- |
| CC(=O)Nc1cccc(/C=C/C=C/c2ccc([N+](=O)[O-])cc2)c1 [Compound 161089] | 1.67 | 3.53 |  |
| CCCN(/C=C/C=C/C=[N+](CCC)CCC)CCC.[O-][Cl+3]([O-])([O-])[O-] [Compound 161504] |  | 5.3 | 2.6 |
| C=C1N(c2cc3ccccc3o2)C(=O)OC12CCCCC2 [Compound 162375] | 1.7 | 3.07 |  |
| Cc1ccc2nc(-c3ccccc3N)[nH]c2c1 [Compound 163454] |  | 3.5 | 2.2 |
| Cl.c1ccc2c(c1)Cn1c-2nc2ccccc21 [Compound 163482] | 1.588 | 3.207 |  |
| O=C1c2ccccc2-c2nc3cc4ccccc4cc3nc21 [Compound 163547] | 3.27 | 4.38 |  |
| [Hg+][c]1ccccc1.[O-]B(O)O [Compound 163948] | 5.67 |  |  |
| CCc1ccc(NC(=O)Nc2cccc(Cl)c2)cc1 [Compound 164212] | 2.04 | 4.07 |  |
| Cc1cccnc1.Cc1cccnc1.Cc1cccnc1.Cc1cccnc1.[Cl-].[Cl][Rh-][Cl] [Compound 165688] |  | 14.6965 | 17.91 |
| Clc1ccc(Cl)c(NNc2cc(Cl)ccc2Cl)c1 [Compound 165765] | 1.34 | 4.44 |  |
| C(=C(\C[P+](c1ccccc1)(c1ccccc1)c1ccccc1)c1ccccc1)/c1ccccc1 [Compound 167334] |  | 12.373 | 11.387 |
| Oc1ccc2ccccc2c1/C=N/Nc1ccc2ccccc2n1 [Compound 168465] |  | 6 | 2.2 |
| N#Cc1c(F)c(F)c(Oc2c(F)c(F)c(F)c(F)c2F)c(F)c1Oc1c(F)c(F)c(F)c(F)c1F [Compound 168745] | 0.39 | 36.37 |  |
| NNC(=S)N/N=C/c1ccc([N+](=O)[O-])s1 [Compound 170334] | 0.98 | 4.45 |  |
| N#CC(C#N)=C/C=C/C=C/c1c(Cl)cccc1Cl [Compound 170444] | 0.66 | 12.56 |  |
| CC(C)c1ccc(N=Nc2ccc(N(C)C)cc2)cc1 [Compound 170582] | 3.72 | 4.44 |  |
| CN(C)c1ccc(N=Nc2ccc(Cl)c(Cl)c2)cc1 [Compound 170589] | 3.81 | 6.57 |  |
| CN(C)c1ccc(N=Nc2ccncc2)cc1 [Compound 170600] | 2.21 | 3.46 |  |
| c1ccc(N=Nc2n[nH]c3ccccc23)cc1 [Compound 170633] | 5.12 | 8.99 |  |
| Cc1cnccc1N=Nc1ccc(N(C)C)cc1 [Compound 170639] | 3.93 | 5.38 |  |
| Nc1cccc2scnc12 [Compound 170680] |  | 6.8 | 2.7 |
| Oc1cccc(C2=NNC(c3cccc(O)c3)=NN2)c1 [Compound 171129] | 5.1 | 7.98 |  |
| Oc1ccc(-c2nnc(-c3ccccc3)nn2)cc1 [Compound 171134] | 2.89 | 3.68 |  |
| COC1/C=C/OC2(C)Oc3c(C)c(O)c4c(O)c(c(C=NN5CCCCCCCC5)c(O)c4c3C2=O)NC(=O)/C(C)=C/C=C/C(C)C(O)C(C)C(O)C(C)C(OC(C)=O)C1C (stereo not shown) [Compound 172656] |  | 3.9 | 1.6 |

| Compound | Activity 2.5 uM | Activity 10 uM | Activity 5 uM |
| --- | --- | --- | --- |
| O=C(Nc1cccc(Cl)c1)NC1CCC(CC2CCCCC2)CC1.O=C(Nc1cccc(Cl)c1)NC1CCC(CC2CCCCC2)CC1 (stereo not shown) [Compound 172879] | 1.11 | 3.6 |  |
| CC(C)(C)C1CCC(NC(=O)C(Cl)Cl)CC1.CC(C)(C)C1CCC(NC(=O)C(Cl)Cl)CC1 (stereo not shown) [Compound 173000] | 0.61 | 3.68 |  |
| CO[C@H]1/C=C/O[C@@]2(C)Oc3c(C)c(O)c4c(O)c(c(/C=N/N5CCN(Cc6cccc(C(F)(F)F)c6)CC5)c(O)c4c3C2=O)NC(=O)/C(C)=C\C=C\[C@H](C)[C@H](O)[C@@H](C)[C@@H](O)[C@@H](C)[C@H](OC(C)=O)[C@@H]1C [Compound 173710] | 0.83 | 16.35 |  |
| Cc1ccc(-c2nc(C#N)c(C#N)nc2-c2ccc(C)cc2)cc1 [Compound 174794] |  | 33.869 | 24.857 |
| Oc1ccc(-c2nnc(-c3ccc(O)cc3)nn2)cc1 [Compound 174877] | 3.04 | 3.29 |  |
| [CH3][Hg][O]C(C)=O [Compound 176145] | 3.81 |  |  |
| CS(=O)(=O)c1ccc(/C=C2\C=Cc3ccccc32)cc1 [Compound 176657] | 1.67 | 4.64 |  |
| FC(F)(F)c1cccc(-c2nc3nc(Cl)c(Cl)nc3[nH]2)c1 [Compound 177407] |  | 21.876 | 16.53 |
| CCC[CH2][Sn]([CH2]CCC)([CH2]CCC)[n]1ccnc1 [Compound 179739] | 0.98 | 3.62 |  |
| CCCCC[CH2][Sn]([CH2]CCCCC)([CH2]CCCCC)[NH]S(=O)(=O)c1ccc(C)cc1 [Compound 179762] | 0.72 | 18.35 |  |
| Clc1nn2nnnc2c2ccccc12 [Compound 179944] | 0.54 | 6.1 |  |
| Cc1cc(C)nc(NC(=S)N/N=C/c2ccccn2)n1 [Compound 185066] |  | 20.339 | 44.91 |
| N#Cc1nc2c3ccccc3c(N=NC(=N)N[N+](=O)[O-])c-2[nH]c1C#N [Compound 186256] |  | 3.71 | 3.212 |
| N#Cc1nc2c3ccccc3c(N=NC(N)=S)c-2[nH]c1C#N [Compound 186257] |  | 59.966 | 49.982 |
| CC(/C=N/O)=N\O.CC(/C=N/O)=N\O.[Pd] [Compound 186948] |  | 4.4425 | 4.507 |
| COc1ccc(NC(=O)Nc2ccccc2Cl)c(Cl)c1 [Compound 191346] |  | 4.4055 | 3.018 |
| O=C(/C=C/c1ccccc1)Nc1ccc(Cl)c(Cl)c1 [Compound 191395] |  | 7.0185 | 3.609 |
| CC12CC3CC(C)(C1)CC(SCCN=C(N)CCl)(C3)C2.Cl [Compound 193484] | 1.24 | 22.72 |  |
| N#Cc1nc2c(nc1C#N)-c1ccccc1/C2=C1/C(=O)Cc2ccccc21 [Compound 193713] | 0.55 | 24.26 |  |
| CCC[CH2][Sn]1([CH2]CCC)[O]CC2(CCCCC2)C[O]1 [Compound 194646] | 8.08 | 6.24 |  |
| C=C1CC2(OC1=O)C(=O)N(C)c1ccccc12 (stereo not shown) [Compound 194807] | 1.72 | 3.45 |  |
| COc1ccc(NC(=S)Nc2ccccc2S)cc1 [Compound 201570] | 2.16 | 3.02 |  |
| C/C(=N\N=C(/C)c1ccc(F)cc1)c1ccc(F)cc1 [Compound 202060] |  | 5.049 | 3.63 |
| CCS(=O)(=O)/C=C/c1ccc2ccccc2n1 [Compound 202491] | 0.5 | 3.05 |  |
